{
  "source": "patent US10689359B2",
  "about": "“Crystals of quinazoline derivative and preparation method therefor” (Xuanzhu Pharma Co., Ltd., priority 2015, dated 2020)",
  "key": {"[1]": {"assay": "Comparison of stability between crystal forms and amorphous form, 60° C. uncovered, relevant substances by HPLC", "assay_type": "physicochemical", "procedure": "Instrument: High Performance Liquid Chromatographic Instrument (Agilent 1260 series) Chromatographic column: chromatographic column using octylsilane chemically bonded silica as filler (HC-C8, 4.6×250 mm, 5 μm) Column temperature: 30° C. Detection wavelength: 230 nm Mobile phase: Mobile phase consisting of 0.06 mol/L sodium dihydrogen phosphate/0.06 mol/L sodium perchlorate solution-acetonitrile, and reversed-phase gradient elution was employed. Flow rate: 1.0 mL/min Injection volume: 10 μL"}, "[2]": {"assay": "Evaluation on pharmacokinetics in SD rats, intragastric administration", "assay_type": "in vivo", "conditions": "5 mg/kg", "procedure": "An amorphous form of a compound of Formula (I), the preparation method of which could be found in the particular Examples as disclosed in the international patent application (Publication No. WO 2012027960 A1).\nTest animal: SD rats, male, weighed 190-250 g, 6 rats for each crystal form, purchased from Beijing Vital River Laboratory Animal Technology Co., Ltd.\nAdministration route: intragastric administration, at an administration dose of 5 mg/kg, and an administration volume of 10 mL/kg.\nBlood collection: whole blood (about 100 μL) was collected from tail vein 10 min, 30 min, 1 h, 2 h, 4 h, 6 h, 8 h, and 24 h after administration, and added to K2EDTA-containing anticoagulation tubes. The whole blood sample was centrifuged for 6 min at 4° C., 8000 rpm in a high speed centrifuge, and plasma was separated. Plasma needed to be prepared within 30 min after blood collection, and stored at −80° C. in a refrigerator.\nPlasma sample analysis: the plasma samples were analyzed by protein precipitation: to plasma (20 μL), an internal standard Gefitinib (200 μL, 50 ng/mL acetonitrile solution) was added; the resultant mixture was vortexed at 500 rpm for 5 min, and centrifuged at 4000 rpm for 20 min in a high speed centrifuge; to the supernatant (100 μL), water (100 μL) was added; the resultant mixture was mixed homogeneously under vortexing and analyzed by LC-MS/MS for blood concentration.\nCalculation for PK parameters: PK parameters were calculated by using Pharsight Phoenix 6.2 software."}},
  "data": [
    {"smiles": "C=CC(=O)Nc1cc2c(Nc3ccc(F)c(Cl)c3)ncnc2cc1OCC1CC2(CCN(C)CC2)C1", "note": "[Amorphous form, N-(4-((3-chloro-4-fluorophenyl)amino)-7-((7-methyl-7-azaspiro[3.5]nonan-2-yl)methoxy)quinazolin-6-yl)acrylamide]", "values": [
      {"measurement": "Total relevant substances", "setting": "[1]; 0 day", "result": 1.1, "unit": "%"},
      {"measurement": "Change in total relevant substances (conclusion)", "setting": "[1]; 60° C. uncovered, 5 days and 10 days", "result": "rapid increase in total relevant substances"},
      {"measurement": "Increase of total relevant substances", "setting": "[1]; 60° C. uncovered, 5 days vs Day 0", "result": 1.3, "unit": "%"},
      {"measurement": "Increase of total relevant substances", "setting": "[1]; 60° C. uncovered, 10 days vs Day 0", "result": 2.1, "unit": "%"},
      {"measurement": "Total relevant substances", "setting": "[1]; 60° C. uncovered-5 days", "result": 2.4, "unit": "%"},
      {"measurement": "Total relevant substances", "setting": "[1]; 60° C. uncovered-10 days", "result": 3.2, "unit": "%"},
      {"measurement": "Cmax and exposure amount (AUC) compared with Crystal form I, II and III", "setting": "[2]", "result": "significantly lower"},
      {"measurement": "In vivo half-life compared with Crystal form I, II and III", "setting": "[2]", "result": "shorter"},
      {"measurement": "AUC(0-inf)", "setting": "[2]; male, SD, rat, plasma, po, suspension in water", "result": 1150, "unit": "ng·h/mL"},
      {"measurement": "AUC0-t", "setting": "[2]; male, SD, rat, plasma, po, suspension in water, read-out: AUC0-t", "result": 1140, "unit": "ng·h/mL"},
      {"measurement": "Cmax", "setting": "[2]; male, SD, rat, plasma, po, suspension in water, read-out: Cmax (maximum blood concentration)", "result": 105, "unit": "ng/mL"},
      {"measurement": "half-life", "setting": "[2]; male, SD, rat, plasma, po, suspension in water, read-out: T1/2 (drug elimination half-life) (converted)", "result": 3.08, "unit": "h"},
      {"measurement": "Tmax", "setting": "[2]; male, SD, rat, plasma, po, suspension in water, read-out: Tmax (time to maximum blood concentration)", "result": 4, "unit": "h"}
    ]}
  ]
}
